Assay results from patent US20250144051A1, “Colchicine for Treating Connective Tissue Disorders” (Khan Sciences, Inc., priority 2023, published 2025).

Columns and labels:
[1] = system: IL-33; test: In vitro tendinopathy model, IL-33 in tenocyte supernatant (MSD multiplex); assay type: cell-based, human; parameters: IL-33, % of negative control / reduction of IL-33 levels compared to negative control: concentration or dose not given beside the values
Procedure: (§1) In Vitro Tendinopathy Model: The below experiment was conducted on an in vitro tendinopathy model. Cells derived from human tendons (tenocytes) can serve as an in vitro model of tendons. See Miller et al., “MicroRNA29a regulates IL-33-mediated tissue remodelling in tendon disease.” Nat Commun 6, 6774 (2015). Cultured tenocytes can be used to investigate the effects of pro-inflammatory cytokines upon the most basic elements of tendon structure. See Ellis et al., “Defining the profile: Characterizing cytokines in tendon injury to improve clinical therapy.” Journal of Immunology and Regenerative Medicine 16, 100059 (2022). When a tendon is injured, it triggers a local inflammatory response that involves immune cell infiltration and the expression of pro-inflammatory mediators. This inflammatory environment can modify tenocyte physiology, causing them to become activated and pro-inflammatory. Exposing the tenocytes to the pro-inflammatory cytokines TNF-α and IL-1β can mimic the effects of tendon injury. See Smith et al., “Tumour necrosis factor alpha, interleukin 1 beta and interferon gamma have detrimental effects on equine tenocytes that cannot be rescued by IL-1RA or mesenchymal stromal cell-derived factors.” Cell Tissue Res 391, 523-544 (2023).
(§2) Cell Culture System. Immortalized, healthy, commercially-sourced human tenocyte cells (donor, patellar tendon) were reconstituted, seeded in T-75 flasks coated with bovine collagen I, and were maintained in Tenocyte Growth Medium supplemented with Tenocyte Growth Supplement, FBS, and penicillin/streptomycin. Culture conditions were maintained at 37° C. in a humidified 5% CO2 atmosphere. Cells were seeded at a density of 100,000 cells/well in commercially-sourced 24-well plates that were pre-coated with rat tail tendon collagen I.
(§3) Treatment Protocol. This study was designed to follow the time-course of collagen production after cytokine exposure to mimic the effects of tendon injury. The time variable was cytokine exposure time (6 hours, 1 day, 3 days, and 5 days). Each of these cytokine exposure time periods was followed by a 24-hour drug treatment period. Inflammatory conditions were induced using a combination of IL-1β (1 nM; 17 ng/ml) and TNF-α (10 ng/ml). Two therapeutic interventions were evaluated. The treatment designated as “treatment A” was colchicine (2 nM). The treatment designated as “treatment B” was colchicine (2 nM) plus pyridoxine (100 μM).
(§4) Experimental Groups. The treatment groups were as follows: (1) exposed to inflammatory cytokines plus treatment A; (2) exposed to inflammatory cytokines plus treatment B; (3) exposed to inflammatory cytokines (negative control, no drug). Further reference control groups were as follows: (A) treatment A without inflammatory cytokine exposure (drug-only control); (B) treatment B without inflammatory cytokine exposure (drug-only control); (C) healthy control (no inflammatory cytokines, no drug treatment).
(§5) Sample Collection Times. Samples were collected at the following timepoints after initiation of cytokine exposure: • 6-hour samples: Collection at 30 hours (6 hr cytokine exposure+24 hr drug treatment) • 1-day samples: Collection at 48 hours (24 hr cytokine exposure+24 hr drug treatment) • 3-day samples: Collection at 96 hours (72 hr cytokine exposure+24 hr drug treatment) • 5-day samples: Collection at 144 hours (120 hr cytokine exposure+24 hr drug treatment, cell culture medium replenished on day-3)
(§6) Assays Used. Collagen I (human) content was measured using enzyme-linked immunosorbent assay (ELISA) in cell culture supernatants. TGF-β1 in cell culture supernatants were measured using the MSD multiplex platform. Other inflammatory cytokines in cell culture supernatants were measured using the MSD multiplex platform.

[2] = system: TGF-β1; test: In vitro tendinopathy model, TGF-β1 in tenocyte supernatant (MSD multiplex); assay type: cell-based, human
Procedure: as §1, §2, §3, §4, §5, §6

[3] = system: Collagen I (human); test: In vitro tendinopathy model, collagen I ELISA in tenocyte culture supernatant; assay type: cell-based
Procedure: as §1, §2, §3, §4
Sample Collection Times. […]
as §6

[4] = system: patient with bilateral upper extremity tendonitis (repetitive strain injury); test: Experimental clinical trial of oral colchicine in one patient with tendonitis; assay type: in vivo, human
Procedure: An experimental trial was conducted on a patient, who was a person with bilateral upper extremity tendonitis for 7 months duration. The symptoms at the wrist radiated down to their fingers and up to their elbow. They reported the severity of their symptoms as 5-7 on a 1-10 standard discomfort scale. The cause of their widespread tendonitis was repetitive strain injury.
The patient began treatment with 0.6 mg of colchicine by oral intake once daily. […] With continued daily dosing of colchicine for a total of two weeks duration, symptoms were nearly gone. They were free of symptoms while performing their activities of daily living. At the end of two weeks of treatment, the patient reported reduced severity of symptoms to a level of 2 on a standard 1-10 discomfort scale.
The experimental trial was further extended to observe the effect of discontinuing the colchicine after initially achieving therapeutic success. Upon discontinuing, their tendonitis symptoms gradually returned. After 7 days without treatment, they reported the severity of their symptoms had worsened to 5 on the standard scale. After another 14 days without treatment (21 days cumulative), their symptoms remained at level 5, and occasionally rising to level 6 with increased arm use activity.

[5] = system: IFN-γ; test: In vitro tendinopathy model, IFN-γ in tenocyte supernatant (MSD multiplex); assay type: cell-based, human; parameters: IFN-γ, % of negative control / reduction of IFN-γ levels compared to negative control: concentration or dose not given beside the values
Procedure: as §1, §2, §3, §4, §5, §6

[6] = system: IL-6; test: In vitro tendinopathy model, IL-6 in tenocyte supernatant (MSD multiplex); assay type: cell-based, human
Procedure: as §1, §2, §3, §4, §5, §6

[7] = system: TNF-α; test: In vitro tendinopathy model, TNF-α in tenocyte supernatant (MSD multiplex); assay type: cell-based, human
Procedure: as §1, §2, §3, §4, §5, §6

[8] = system: VEGF; test: In vitro tendinopathy model, VEGF in tenocyte supernatant (MSD multiplex); assay type: cell-based, human; parameters: VEGF, % of negative control / increase of VEGF levels compared to negative control: concentration or dose not given beside the values
Procedure: as §1, §2, §3, §4, §5, §6

[9] = 6 hr cytokine exposure + 24 hr drug treatment
[10] = 1 day cytokine exposure + 24 hr drug treatment
[11] = 3 days cytokine exposure + 24 hr drug treatment
[12] = 5 days cytokine exposure + 24 hr drug treatment

COc1cc2c(c(OC)c1OC)-c1ccc(OC)c(=O)cc1[C@@H](NC(C)=O)CC2 [Treatment A, colchicine]
IL-33, % of healthy level [1, 9]: 113.6% | IL-33, % of negative control [1, 9]: 55.0% | IL-33 level ([1]; 6 hr cytokine exposure + 24 hr drug treatment, negative control 18.0 pg/mL): 9.9 pg/mL | IL-33, % of healthy level [1, 10]: 128.1% | IL-33, % of negative control [1, 10]: 85.1% | IL-33 level ([1]; 1 day cytokine exposure + 24 hr drug treatment, negative control 13.1 pg/mL): 11.2 pg/mL | IL-33, % of healthy level [1, 11]: 87.1% | IL-33, % of negative control [1, 11]: 70.8% | IL-33 level ([1]; 3 days cytokine exposure + 24 hr drug treatment, negative control 10.7 pg/mL): 7.6 pg/mL | IL-33, % of healthy level [1, 12]: 167.4% | IL-33, % of negative control [1, 12]: 85.4% | IL-33 level ([1]; 5 days cytokine exposure + 24 hr drug treatment, negative control 17.1 pg/ml): 14.6 pg/mL | reduction of IL-33 levels compared to negative control ([1]; at 6 hours): 45% | IL-33 level ([1]; drug alone, without inflammatory cytokines, healthy control 8.7 pg/mL): 3.4 pg/mL | TGF-β1, % of negative control [2, 9]: 127% | TGF-β1 level ([2]; 6 hr cytokine exposure + 24 hr drug treatment, negative control 0.97 ng/ml): 1.23 ng/mL | TGF-β1, % of negative control [2, 10]: 104% | TGF-β1 level ([2]; 1 day cytokine exposure + 24 hr drug treatment, negative control 1.22 ng/ml): 1.28 ng/mL | TGF-β1, % of healthy baseline [2, 11]: 112% | TGF-β1, % of negative control [2, 11]: 114% | TGF-β1 level ([2]; 3 days cytokine exposure + 24 hr drug treatment, negative control 1.70 ng/ml): 1.94 ng/mL | TGF-β1, % of negative control [2, 12]: 108% | TGF-β1 level ([2]; 5 days cytokine exposure + 24 hr drug treatment, negative control 1.22 ng/mL): 1.32 ng/mL | TGF-β1 level ([2]; drug alone, without inflammatory cytokines, healthy control 1.73 ng/ml): 1.90 ng/mL | TGF-β1, % of healthy baseline ([2]; drug-only control, without inflammatory cytokines): 110% | collagen I level ([3]; 6 hr IL-1β + TNF-α exposure + 24 hr drug treatment, negative control 24 ng/mL): 20 ng/mL | collagen I level ([3]; 1 day IL-1β + TNF-α exposure + 24 hr drug treatment, negative control 20 ng/ml): 19 ng/mL | collagen I level ([3]; 3 days IL-1β + TNF-α exposure + 24 hr drug treatment, negative control 23 ng/ml): 21 ng/mL | collagen I level ([3]; 5 days IL-1β + TNF-α exposure + 24 hr drug treatment, negative control 28 ng/ml): 28 ng/mL | collagen I level ([3]; drug alone, without inflammatory cytokines, healthy control 30 ng/ml): 17 ng/mL | tendonitis symptoms ([4]; 0.6 mg oral once daily, by the second day of treatment): began to improve | severity of symptoms on standard 1-10 discomfort scale ([4]; 0.6 mg oral once daily, end of two weeks of treatment, before treatment 5-7): 2 | tendonitis symptoms ([4]; 0.6 mg oral once daily, total of two weeks duration): nearly gone | severity of symptoms on standard 1-10 discomfort scale ([4]; 7 days without treatment after discontinuing colchicine): 5 | severity of symptoms on standard 1-10 discomfort scale ([4]; 21 days cumulative without treatment after discontinuing colchicine): 5 | reduction of IFN-γ levels compared to negative control ([5]; 6-hour timepoint): 28.4% | IFN-γ, % of healthy level [5, 9]: 154.5% | IFN-γ, % of negative control [5, 9]: 71.6% | IFN-γ level ([5]; 6 hr cytokine exposure + 24 hr drug treatment, negative control 17.6 pg/ml): 12.6 pg/mL | IFN-γ, % of healthy level [5, 10]: 186.9% | IFN-γ, % of negative control [5, 10]: 98.0% | IFN-γ level ([5]; 1 day cytokine exposure + 24 hr drug treatment, negative control 15.6 pg/ml): 15.3 pg/mL | IFN-γ, % of healthy level [5, 11]: 112.1% | IFN-γ, % of negative control [5, 11]: 72.4% | IFN-γ level ([5]; 3 days cytokine exposure + 24 hr drug treatment, negative control 12.7 pg/mL): 9.2 pg/mL | IFN-γ, % of healthy level [5, 12]: 160.7% | IFN-γ, % of negative control [5, 12]: 80.7% | IFN-γ level ([5]; 5 days cytokine exposure + 24 hr drug treatment, negative control 16.3 pg/mL): 13.1 pg/mL | IFN-γ level ([5]; drug alone, without inflammatory cytokines, healthy control 8.2 pg/mL): 3.1 pg/mL | IL-6, % of healthy level [6, 9]: 873.4% | IL-6, % of negative control [6, 9]: 185.1% | IL-6 level ([6]; 6 hr cytokine exposure + 24 hr drug treatment, negative control 1614.8 pg/mL): 2989.5 pg/mL | IL-6, % of healthy level [6, 10]: 617.8% | IL-6, % of negative control [6, 10]: 122.5% | IL-6 level ([6]; 1 day cytokine exposure + 24 hr drug treatment, negative control 1726.6 pg/mL): 2114.9 pg/mL | IL-6, % of healthy level [6, 11]: 397.3% | IL-6, % of negative control [6, 11]: 127.5% | IL-6 level ([6]; 3 days cytokine exposure + 24 hr drug treatment, negative control 1067.0 pg/mL): 1360.1 pg/mL | IL-6, % of healthy level [6, 12]: 207.0% | IL-6, % of negative control [6, 12]: 101.7% | IL-6 level ([6]; 5 days cytokine exposure + 24 hr drug treatment, negative control 696.6 pg/mL): 708.5 pg/mL | IL-6 level ([6]; drug alone, without inflammatory cytokines, healthy control 342.3 pg/mL): 73.7 pg/mL | TNF-α, % of healthy level [7, 9]: 926.9% | TNF-α, % of negative control [7, 9]: 116.7% | TNF-α level ([7]; 6 hr cytokine exposure + 24 hr drug treatment, negative control 1678.4 pg/mL): 1958.4 pg/mL | TNF-α, % of healthy level [7, 10]: 806.3% | TNF-α, % of negative control [7, 10]: 129.3% | TNF-α level ([7]; 1 day cytokine exposure + 24 hr drug treatment, negative control 1317.2 pg/mL): 1703.5 pg/mL | TNF-α, % of healthy level [7, 11]: 617.0% | TNF-α, % of negative control [7, 11]: 135.8% | TNF-α level ([7]; 3 days cytokine exposure + 24 hr drug treatment, negative control 960.1 pg/mL): 1303.6 pg/mL | TNF-α, % of healthy level [7, 12]: 424.1% | TNF-α, % of negative control [7, 12]: 108.7% | TNF-α level ([7]; 5 days cytokine exposure + 24 hr drug treatment, negative control 824.1 pg/mL): 895.9 pg/mL | TNF-α level ([7]; drug alone, without inflammatory cytokines, healthy control 211.3 pg/mL): 1.1 pg/mL | VEGF, % of healthy level [8, 9]: 263.2% | VEGF, % of negative control [8, 9]: 157.0% | VEGF level ([8]; 6 hr cytokine exposure + 24 hr drug treatment, negative control 333.6 pg/mL): 523.8 pg/mL | VEGF, % of healthy level [8, 10]: 401.8% | VEGF, % of negative control [8, 10]: 133.4% | VEGF level ([8]; 1 day cytokine exposure + 24 hr drug treatment, negative control 599.5 pg/mL): 799.7 pg/mL | VEGF, % of healthy level [8, 11]: 314.0% | VEGF, % of negative control [8, 11]: 112.6% | VEGF level ([8]; 3 days cytokine exposure + 24 hr drug treatment, negative control 555.0 pg/mL): 624.9 pg/mL | VEGF, % of healthy level [8, 12]: 229.0% | VEGF, % of negative control [8, 12]: 117.9% | VEGF level ([8]; 5 days cytokine exposure + 24 hr drug treatment, negative control 386.6 pg/mL): 455.8 pg/mL | increase of VEGF levels compared to negative control ([8]; at 6 hours): 57% | VEGF level ([8]; drug alone, without inflammatory cytokines, healthy control 199.0 pg/mL): 621.7 pg/mL
